Source: publication PMC11610669, “A Spectroscopic Study on the Amyloid‐β Interaction with Clicked Peptide‐Porphyrin Conjugates: a Vision Toward the Detection of Aβ Peptides in Aqueous Solution” (Chembiochem, 2024)

Assays:
Aβ42 = Aβ42 (Homo sapiens, UniProt P05067); assay: Grating-Coupled Interferometry (GCI) binding to immobilized Aβ42
Procedure: The Grating‐Coupled Interferometry (GCI) is a widely used analytical technique for characterizing intermolecular interactions. It allows quantitative measurements of both the affinity and the kinetics of the binding events. This high sensitivity label‐free method was exploited to measure the interactions of Aβ42 with Cu‐Ph‐Pep , Ph‐Pep , and Zn‐Ph‐Pep (Figure 5S). Control experiments with pristine MCPTPyP and the peptide GPGKLVFF ( Pep ) were carried out for comparison. The calculated association and dissociation kinetic constants (kon and koff, respectively) and the thermodynamic binding constant (KD), are summarized in Table 1. The obtained values indicate that all the conjugates show good affinities with Aβ42. It is also clear from Table 1 that the peptide moiety is fundamental for the molecular recognition of the Aβ42 peptide.[48] […] Nevertheless, it is important to emphasize that the interaction with Aβ42 is primarily mediated by the peptide rather than by the porphyrin macrocycle. We next investigated whether these peptide derivatives could be employed as molecular probes for the detection of Aβ42 aggregated species. A new set of CD experiments was then carried out with Aβ42 at 20 μM both in the absence and in the presence of the porphyrin‐peptide conjugates at 1 : 1 molar ratio in the UV (195–350) and Visible (350–500) regions. […] The signal rapidly evolved toward the typical β‐sheet profile (already within 24 h) with a single minimum at 216 nm, an x‐axis intercept at 202 nm and a maximum shift at a wavelength 195 nm.[49] […] For the sake of comparison, the CD spectra of the porphyrin‐peptide conjugates at 20 μM were also recorded in the same experimental conditions, both in the far‐UV and Visible regions (Figure 6S).
The experiments were performed on a Creoptix WAVE system (Creoptix). Borate buffer (100 mM sodium borate pH 9.0, 1 M NaCl) was used for chip conditioning. Aβ42 peptide (20 μg/ml in Na Acetate pH 4.5) was immobilized on 4PCH WAVE chips (quasiplanar polycarboxylate surface; Creoptix) according to the manufacturer instructions at a final density of 1910±40 pg/mm^2. Single‐cycle sequential injections of dilution series for each Porphyrin‐Peptide conjugates in running buffer (PBS, 0.005 % Tween 20, 1 % DMSO, 0.2 mg/ml BSA) were performed at 25 °C, using a flow rate of 100 μl/min. In details, for the conjugate Cu‐Ph‐Pep , 1 : 2 dilution series starting from 200 μM were injected for 10 s association time, 45 s dissociation time, followed by a dissociation time of 600 s for the last higher concentration injection. Finally, for the conjugates Ph‐Pep and Zn‐Ph‐Pep , 1 : 2 dilution series starting from 50 μM and 100 uM, respectively, were injected for 30 s association time, 45 s dissociation time, followed by a dissociation time of 600 s for the last higher concentration injection. Blank injections were used for double referencing and a DMSO calibration curve for bulk correction. Analysis and correction of the obtained data were performed using the Creoptix WAVE control software (correction applied: X and Y offset; DMSO calibration; double referencing). Mass transport binding models with bulk correction were used to fit all experiments. All the experiments have been performed at least in triplicate.
Figure 5S. Quantitative binding kinetics of Aβ42 vs a) MCPTPyP; b) Cu-Ph-Pep; c) Ph-Pep; d) Zn-Ph-Pep; and e) Pep measured by GCI. All curves were blank subtracted. Experiments were performed in triplicate. All the quality assessments (i.e., χ2 shown in Table 1 of the main text , parameter errors, and residual plots were acceptable; the sensorgrams had sufficient curvatures an d the kinetic constant k off were within the measurable range) were fulfilled. Descriptive Statistical Analysis was employed to calculate the mean of the obtained values of k on, koff and KD as a measure of central tendency and standard deviations of the former values were computed as a measure of dispersion.
Figure 6S. […]

SH-SY5Y = assay: Live cell confocal fluorescence imaging; format: cell-based, human; details: RA-differentiated SH-SY5Y, 5 μM, 24 h, excitation 405 nm, emission 600–700 nm
Procedure: The intracellular localization of porphyrins in living cells has already been reported in the literature.[50, 51] […] The ability of our compounds to associate with cells or to be taken up by them was investigated by live cell confocal fluorescence and flow cytometry. For this purpose, we exploited the fluorescence of the porphyrin moiety. Fully differentiated SH‐SY5Y cells were exposed to 5 μM of each compound for 24 h, and then fluorescence spectra inside and outside cells were measured as described in the experimental section. The images reported in Figure 6, panel a, show the emission spectra recorded (pixel by pixel) inside cells, compared to the emission spectra recorded for control cells (no porphyrins in the growth medium). A specific porphyrin signal recorded between 600 nm and 700 nm only in the exposed sample, provides evidence that the porphyrin‐conjugated compounds are distributed within the cells. We first measured the emission spectra of each compound to confirm that the fluorescent properties measured in vitro were maintained under the conditions applied during the biological assay. Once the specific emission peak typical of porphyrins was detected inside the cells, we measured the average fluorescence intensity for each compound under study. Although modest, the signal was detected in almost every cell under the microscope stage. […]

Aβ42, sequence (P05067 672-713 limits assumed): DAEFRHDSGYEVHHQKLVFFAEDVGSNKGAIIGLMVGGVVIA

C[n+]1ccc(-c2c3nc(c(-c4cc[n+](C)cc4)c4ccc([nH]4)c(-c4cc[n+](C)cc4)c4nc(c(-c5ccc(C(=O)O)cc5)c5ccc2[nH]5)C=C4)C=C3)cc1.[Cl-].[Cl-].[Cl-] [MCPTPyP, 5‐(4‐carboxyphenyl)‐10,15,20‐(tri‐N‐Methyl‐4‐Pyridyl) Porphyrin trichloride, reference compound]
Kd (Aβ42; GCI (Creoptix WAVE), Aβ42 immobilized on 4PCH chip, PBS, 0.005 % Tween 20, 1 % DMSO, 0.2 mg/ml BSA, 25 °C, 100 μl/min, mass transport binding model, mean ± SD, at least triplicate): 215 ± 13 µM
χ^2 (average of the squared residuals, fitting confidence) (Aβ42; GCI fit quality parameter): 0.63±0.06
cell entry / intracellular distribution (SH-SY5Y): able to cross the plasma membrane and to distribute within the cells
